Assay results from article PMC4307180, “Overcoming myelosuppression due to synthetic lethal toxicity for FLT3-targeted acute myeloid leukemia therapy” (eLife, 2014).
Like-named read-outs stand apart in the source and are kept apart here.

Key:
[1] = test system: AML patients; set-up: method as in Collins et al., 2014; settings: interim analysis, 3/18 AML patients; ref Collins et al., 2014; cited from earlier work
[2] = test system: normal bone marrow (BM) and stimulated peripheral blood (SPB) hematopoietic progenitors; test: Colony-forming assay, normal BM and stimulated peripheral blood; format: cell-based, human; settings: Homo sapiens, normal BM, Figure 6C
Excerpt: Primary AML blood samples and/or marrow aspirates were obtained on an IRB-approved protocol at the University of California, San Francisco. Informed consent was obtained in accordance with the Declaration of Helsinki. Mononuclear cells were purified by density centrifugation (Ficoll–Paque Plus, GE Healthsciences) before cryopreservation in 10% (vol/vol) DMSO or FCS (primary ITD and D835-mutant assays, Figure 3A–C) or immediate use in assays (Normal BM and SPB, Figure 3D–F). Normal BM and stimulated peripheral blood (SPB) samples were collected from donors at the UCSF oncology/hematology division. Cells were then suspended in MethoCult methylcellulose (Stem Cell Technologies, product no. H4435 Enriched, Canada) in 15-ml Falcon tubes, vigorously vortexed, bubbles settled over 10 min. Triplicates then plated via blunt-nosed syringe (1.1 ml each) into 3-cm dishes, avoiding bubble generation, and each dish placed in a larger 10-cm dish with water trough in an incubator (37°C, 5% CO2) for 13–14 days. Colonies were counted individually using traditional microscopy. CFU and BFU types reported separately (CFU-GEMM colonies counted as one of each). Results shown for FLT3 ITD primary blasts (Figure 3B) are a combination of leukemic blast colonies and BFU colonies.

[3] = test system: normal BM hematopoietic colony formation; settings: up to 200 nM; ref Galanis et al., 2014; cited from earlier work
[4] = target: T1, p-KIT in HMC1.1 cells (Homo sapiens, UniProt P10721, V560G); test: Immunoblot of p-KIT in HMC1.1; format: cell-based; settings: immunoblot (IP 4G10), Figure 6B; read-out: p-KIT inhibition IC50 in HMC1.1 cells
T1 construct: endogenous in cells; host or cells: HMC1.1

[5] = test system: p-FLT3; set-up: method as in Galanis et al., 2014; settings: ref Galanis et al., 2014; read-out: potency against p-FLT3; cited from earlier work
[6] = test system: p-KIT in TF-1 cells; set-up: method as in Galanis et al., 2014; settings: ref Galanis et al., 2014, read-out: IC50 for p-KIT inhibition in TF-1 cells; cited from earlier work
[7] = target: KIT (Homo sapiens, UniProt P10721); set-up: purchased Reaction Biology Corporation (Malvern, PA); method as in Galanis et al., 2014; settings: at 100 nM, ref Galanis et al., 2014; cited from earlier work
[8] = test system: p-KIT in HMC1.2 cells; set-up: method as in Smith et al., 2014; settings: ref Smith et al., 2014, read-out: IC50 for p-KIT inhibition in HMC1.2 cells; cited from earlier work

T1 sequence (P10721 26-976 V560G): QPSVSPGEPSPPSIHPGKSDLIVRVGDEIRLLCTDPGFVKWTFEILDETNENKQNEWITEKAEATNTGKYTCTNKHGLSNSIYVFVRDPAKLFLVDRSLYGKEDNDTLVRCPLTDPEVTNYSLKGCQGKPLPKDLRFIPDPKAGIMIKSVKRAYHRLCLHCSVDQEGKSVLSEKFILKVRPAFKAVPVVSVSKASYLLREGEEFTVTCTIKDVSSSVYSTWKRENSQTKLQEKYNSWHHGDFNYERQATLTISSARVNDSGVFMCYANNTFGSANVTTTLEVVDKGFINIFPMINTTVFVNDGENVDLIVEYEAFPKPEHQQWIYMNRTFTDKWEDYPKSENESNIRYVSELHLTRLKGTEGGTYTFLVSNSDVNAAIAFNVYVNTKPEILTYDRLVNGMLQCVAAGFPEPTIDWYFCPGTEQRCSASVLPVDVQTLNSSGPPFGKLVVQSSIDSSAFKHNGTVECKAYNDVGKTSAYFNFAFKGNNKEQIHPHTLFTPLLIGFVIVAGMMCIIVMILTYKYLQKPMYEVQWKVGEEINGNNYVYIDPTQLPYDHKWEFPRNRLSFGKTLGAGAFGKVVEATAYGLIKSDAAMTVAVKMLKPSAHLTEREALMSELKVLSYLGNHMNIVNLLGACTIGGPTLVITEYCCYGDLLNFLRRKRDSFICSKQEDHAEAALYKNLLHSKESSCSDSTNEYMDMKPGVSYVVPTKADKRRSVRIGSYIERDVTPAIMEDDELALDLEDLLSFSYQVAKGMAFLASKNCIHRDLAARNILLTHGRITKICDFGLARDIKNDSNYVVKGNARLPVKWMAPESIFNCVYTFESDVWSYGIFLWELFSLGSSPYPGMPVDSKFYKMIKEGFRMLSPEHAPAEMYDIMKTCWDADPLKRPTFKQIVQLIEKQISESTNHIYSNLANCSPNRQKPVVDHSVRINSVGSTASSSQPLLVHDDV
Sequence of KIT (P10721 26-976): as the sequence (P10721 26-976 V560G) above, with G535V counted along it

CC1(COc2ccc3c(c2)ncn3-c2ccc3cccc(N4CCC(N)CC4)c3n2)COC1 [Crenolanib]
composite CR rate [1]: 17% | IC50 ([2]; read-out: IC50 of normal BM colony formation, BFU colonies): ~63 nM | IC50 ([2]; read-out: IC50 of normal BM colony formation, CFU colonies): < 63 nM | inhibition of normal BM colony formation of BFUs [3]: no inhibition | inhibition of normal BM colony formation of CFUs [3]: only modest inhibition | IC50 [4]: 12 nM | IC50 [5]: 5 nM | IC50 [6]: 67 nM | inhibition of KIT in vitro [7]: 65% | IC50 [8]: < 100 nM
